Laboratory results published in the supplement of paper PMC10307832.

Tests used:
Assay in all cases: relative viability (nuclei count vs DMSO), 5 days (fraction); higher = more cells survive
EHT 1864 + Tozasertib = compound: C1COCCN1CC2=CC(=O)C(=CO2)OCCCCCSC3=C4C=CC(=CC4=NC=C3)C(F)(F)F [EHT 1864] + Cc1cc(Nc2cc(N3CCN(C)CC3)nc(Sc3ccc(NC(=O)C4CC4)cc3)n2)n[nH]1 [Tozasertib] (partner 0.1 µM)
How it was run: (§1)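 Lung cancer cell lines, seeded in 1536-well plates, were treated the following day by pin tool with a single drug or with five library-drug doses (not always all listed) in √10 steps on top of a fixed anchor-drug dose. Cells were fixed and nuclei stained in one step after 5 days, and nuclei were counted. Relative viability is the nuclei count for treated wells divided by that for vehicle wells, reported as medians of duplicate plates.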

EHT 1864 + AZD7762 = compound: C1COCCN1CC2=CC(=O)C(=CO2)OCCCCCSC3=C4C=CC(=CC4=NC=C3)C(F)(F)F [EHT 1864] + NC(=O)Nc1cc(-c2cccc(F)c2)sc1C(=O)N[C@H]1CCCNC1 [AZD7762] (partner 0.2 µM)
How it was run: as §1

EHT 1864 + Decitabine = compound: C1COCCN1CC2=CC(=O)C(=CO2)OCCCCCSC3=C4C=CC(=CC4=NC=C3)C(F)(F)F [EHT 1864] + Nc1ncn([C@H]2C[C@H](O)[C@@H](CO)O2)c(=O)n1 [Decitabine] (partner 2 µM)
How it was run: as §1

EHT 1864 + Bortezomib = compound: C1COCCN1CC2=CC(=O)C(=CO2)OCCCCCSC3=C4C=CC(=CC4=NC=C3)C(F)(F)F [EHT 1864] + CC(C)C[C@H](NC(=O)[C@H](Cc1ccccc1)NC(=O)c1cnccn1)B(O)O [Bortezomib] (partner 0.002 µM)
How it was run: as §1

Row | Cell Line | relative viability (EHT 1864 + Tozasertib; first compound 0.04 µM) | relative viability (EHT 1864 + Tozasertib; first compound 0.1265 µM) | relative viability (EHT 1864 + Tozasertib; first compound 0.4 µM) | relative viability (EHT 1864 + Tozasertib; first compound 1.265 µM) | relative viability (EHT 1864 + Tozasertib; first compound 4 µM) | relative viability (EHT 1864 + AZD7762; first compound 0.04 µM) | relative viability (EHT 1864 + AZD7762; first compound 0.1265 µM) | relative viability (EHT 1864 + AZD7762; first compound 0.4 µM) | relative viability (EHT 1864 + AZD7762; first compound 1.265 µM) | relative viability (EHT 1864 + AZD7762; first compound 4 µM) | relative viability (EHT 1864 + Decitabine; first compound 0.04 µM) | relative viability (EHT 1864 + Decitabine; first compound 0.1265 µM) | relative viability (EHT 1864 + Decitabine; first compound 0.4 µM) | relative viability (EHT 1864 + Decitabine; first compound 1.265 µM) | relative viability (EHT 1864 + Decitabine; first compound 4 µM) | relative viability (EHT 1864 + Bortezomib; first compound 0.04 µM) | relative viability (EHT 1864 + Bortezomib; first compound 0.4 µM) | relative viability (EHT 1864 + Bortezomib; first compound 1.265 µM) | relative viability (EHT 1864 + Bortezomib; first compound 4 µM) | relative viability (EHT 1864 + Bortezomib; first compound 0.1265 µM)
1 | NCI-H2342 | 0.541 | 0.394 | 0.452 | 0.491 | 0.533 | 0.426 | 0.438 | 0.472 | 0.51 | 0.492 | 0.712 | 0.562 | 0.787 | 0.751 | 0.763 |  |  |  |  | 
2 | HCC-366 | 0.13 | 0.168 | 0.0914 | 0.0579 | 0.0542 | 0.262 | 0.232 | 0.248 | 0.28 | 0.243 | 0.338 | 0.324 | 0.331 | 0.333 | 0.326 | 1.03 | 0.928 | 1.03 | 1.11 | 
3 | NCI-H2170 | 0.7 | 0.52 | 0.775 | 0.692 | 0.658 | 0.77 | 0.764 | 0.9 | 0.86 | 0.963 | 0.488 | 0.451 | 0.488 | 0.473 | 0.467 |  |  |  |  | 
4 | SW 1573 | 0.173 | 0.158 | 0.172 | 0.225 | 0.154 |  |  |  |  |  | 0.655 | 0.478 | 0.463 | 0.55 | 0.339 | 1.09 | 1.01 | 0.975 | 0.674 | 0.923
5 | COR-L 105 | 0.343 | 0.36 | 0.367 | 0.369 | 0.693 |  |  |  |  |  | 0.781 | 0.578 | 0.574 | 0.786 | 0.637 | 0.772 | 0.941 | 0.751 | 0.727 | 0.7
6 | EBC-1 |  |  |  |  |  |  |  |  |  |  |  |  |  |  |  | 0.56 | 0.505 | 0.509 | 0.541 | 0.524
7 | SK-LU-1 | 0.313 | 0.286 | 0.274 | 0.297 | 0.293 |  |  |  |  |  | 0.732 | 0.632 | 0.567 | 0.657 | 0.658 | 1.22 | 1.37 | 1.37 | 1.07 | 
8 | NCI-H1648 | 0.486 | 0.376 | 0.396 | 0.411 | 0.441 | 0.72 |  | 0.609 | 0.662 | 0.866 | 0.564 |  | 0.471 | 0.502 | 0.643 |  |  |  |  | 
9 | SW 900 | 0.531 |  | 0.49 | 0.577 | 0.481 | 0.582 |  | 0.681 | 0.632 | 0.59 | 0.449 |  | 0.419 | 0.46 | 0.504 |  |  |  |  | 
10 | NCI-H520 | 0.377 | 0.376 | 0.388 | 0.483 | 0.377 |  |  |  |  |  | 0.545 | 0.496 | 0.535 | 0.493 | 0.445 | 0.685 | 0.629 | 0.773 | 0.323 | 0.339
11 | UMC-11 | 0.206 |  | 0.2 | 0.207 | 0.192 |  |  |  |  |  | 0.447 | 1.15 | 0.731 | 0.693 | 0.736 | 0.675 | 0.719 | 0.255 | 0.547 | 0.521
12 | NCI-H1792 |  |  |  |  |  | 0.746 |  | 0.733 | 0.592 | 0.738 | 0.506 |  | 0.515 | 0.567 | 0.601 | 0.859 | 0.926 | 0.866 | 0.919 | 0.877
13 | NCI-H1944 | 0.283 |  | 0.277 | 0.234 | 0.292 | 0.5 |  | 0.511 | 0.563 | 0.665 | 0.43 |  | 0.429 | 0.433 | 0.417 |  |  |  |  | 
14 | NCI-H1563 |  |  |  |  |  |  |  |  |  |  |  |  |  |  |  | 0.901 | 0.861 | 0.89 | 0.751 | 0.853
15 | NCI-H1395 | 0.831 | 0.65 | 0.772 | 0.719 | 0.723 | 0.394 | 0.37 | 0.389 | 0.437 | 0.436 | 0.722 | 0.676 | 0.709 | 0.657 | 0.673 |  |  |  |  | 
16 | NCI-H1299 |  |  |  |  |  |  |  |  |  |  |  |  |  |  |  | 1.02 | 0.993 | 0.994 | 0.917 | 0.986
17 | NCI-H2228 | 0.335 | 0.332 | 0.209 | 0.204 | 0.16 |  |  |  |  |  |  |  |  |  |  | 0.935 | 0.984 | 0.904 | 1.11 | 1.13
18 | NCI-H358 | 0.113 | 0.128 | 0.104 | 0.102 | 0.0985 | 0.558 | 0.587 | 0.536 | 0.556 | 0.456 | 0.238 | 0.241 | 0.212 | 0.263 | 0.192 |  |  |  |  | 
19 | NCI-H522 | 0.583 | 0.471 | 0.561 | 0.503 | 0.541 | 0.844 | 0.774 | 0.802 | 0.973 | 1.07 | 0.592 | 0.685 | 0.709 | 0.702 | 0.703 |  |  |  |  | 
20 | A549 |  |  |  |  |  |  |  |  |  |  | 0.263 | 0.213 | 0.257 | 0.284 | 0.323 |  |  |  |  | 
21 | SK-MES-1 | 0.972 | 0.885 | 0.888 | 0.823 | 0.81 |  |  |  |  |  | 0.365 | 0.398 | 0.377 | 0.448 | 0.41 |  |  |  |  | 
22 | CAL-12T | 0.39 | 0.294 | 0.302 | 0.292 | 0.216 | 0.689 | 0.543 | 0.624 | 0.517 | 0.516 |  |  |  |  |  | 1.03 | 0.928 | 0.965 | 0.981 | 0.815
23 | COR-L23 | 0.248 | 0.176 | 0.21 | 0.131 | 0.155 |  |  |  |  |  | 0.523 | 0.343 | 0.473 | 0.475 | 0.307 | 1.08 | 1.01 | 1.05 | 0.867 | 0.85
24 | IA-LM |  |  |  |  |  |  |  |  |  |  |  |  |  |  |  | 0.821 | 0.956 | 0.709 | 0.536 | 0.553
25 | NCI-H1650 |  |  | 0.385 | 0.355 | 0.242 |  |  |  |  |  | 0.411 | 0.385 | 0.435 | 0.47 | 0.5 | 0.202 | 0.228 | 0.215 | 0.202 | 0.205
26 | Calu-6 |  |  |  |  |  |  |  |  |  |  |  |  |  |  |  | 0.97 | 0.846 | 1.11 | 0.917 | 0.844
